# Laboratory results: patent US9867886B2, “Complex in which anti-cotinine antibody is bound to conjugate of cotinine and binding substance, and use thereof” (SNU R&DB FOUNDATION, priority 2011, dated 2018)
# m = 2'-O-methyl; r = 2'-OH (RNA); f = 2'-fluoro
# Assays:
# humans = settings: cited from earlier work
# mouse = settings: cited from earlier work
# [1] = in vivo; cited from earlier work
# [2] = Pharmacokinetics of cotinine-pegaptanib and its anti-cotinine IgG complex in mice (serum VEGF ELISA); format: in vivo; settings: ICR mouse, tail vein, 0.135 mg/kg
# Description: Male wild-type ICR mouse aged from 4 to 6 weeks were injected through tail vein with cotinine-pegaptanib (0.135 mg/kg) and a cotinine-pegaptanib (0.135 mg/kg)/anti-cotinine IgG (1 mg/kg) complex, diluted in 100 μL of PBS. Each peripheral blood was obtained through the orbital plexus at 0, 0.5, 1, 1.5 and 2 hours after the injection, and the obtained peripheral blood was maintained at a room temperature for 30 minutes then centrifuged at 800 g for 15 minutes to collect supernatant only so that serum was obtained, and analyzed by using ELISA.
# Each well of a 96-well ELISA plate was coated with 50 ng of human VEGF dissolved in PBS overnight, and then blocked by PBSB. Then, each serum was diluted in PBSB at a ratio of 1:100, and added to each well with 100 nM of an anti-cotinine IgG The plate was maintained at a room temperature for one hour and washed with PBS-T, and then HRP-bound rabbit anti-human Fc specific IgG (Thermo Fisher Scientific) was added to each well. The resultant mixture was maintained at room temperature for one hour. Subsequently, 3,3′,5,5′-tetramethylbenzidine (TMB) (Thermo Fisher Scientific) was added as a substrate to the resultant mixture, and kept at a room temperature for 15 minutes, followed by measuring the optical density at 650 nm.
Molecule,side effects (humans; 4-day administration at a daily dose of 1.8 g),"physiological activity; physiological and behavioral changes (humans; humans, maximally 160 mg for three days)",LD50 (mouse) [mg/kg],half-life in serum [1],degradation after injection into the body [2]
CN1C(=O)CC[C@H]1c1cccnc1 [cotinine],no particular side effects have not been reported,any physiological and behavioral changes have not been reported,2000 to 4000,about 16 hours,
"cotinine-pegaptanib: nucleic acid part of pegaptanib RNA aptamer (SEQ ID NO: 5) conjugated with cotinine via amino C6 linker (CGGAAUCAGUGAAUGCUUAUACAUCCG; sugars from the 5' end fmmrrffmmfmmmfmfffmfmfmfffm, backbone not given here; cotinine conjugated via amino C6 linker, further chemistry not fully specified)",,,,,degraded immediate after injection into the body
